Source: patent US20150087673A1, “METHODS FOR USING AND BIOMARKERS FOR AMPK-ACTIVATING COMPOUNDS” (RIGEL PHARMACEUTICALS, INC., priority 2013, published 2015)
pEC50: −log10 of the molar value.

System: AMPK
Experiment: AMPK activation assay (enzyme-linked immunosorbent assay)
Type: cell-based
Outline: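 Read-out: immunodetected kinase activation after compound exposure, run with commercial kit reagents.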

| pEC50 | Compound |
| --- | --- |
| > 6.30 | N#Cc1ccc(CN2CCC(NC(=O)c3ccc(C(=O)N4CCCC(Cc5ccc(F)cc5)C4)cn3)CC2)cc1 (centres unmarked) [Compound 152, N-(1-(4-cyanobenzyl)piperidin-4-yl)-5-(3-(4-fluorobenzyl)piperidine-1-carbonyl)picolinamide] |
| 5.30 to 6.00 | COc1ccc(C(=O)C2CCN(C(=O)c3ccc(C(=O)NC4CCN(Cc5ccc(N)cc5)CC4)cn3)CC2)cc1 [Compound 400, N-(1-(4-aminobenzyl)piperidin-4-yl)-6-(4-(4-methoxybenzoyl)piperidine-1-carbonyl)nicotinamide] |
| < 5.00 | COc1ccc(C(=O)C2CCN(C(=O)c3ccc(C(=O)NC4CCN(Cc5ccc(NC(=O)CCOCCOCCOCCNC(=O)CCCC[C@@H]6SC[C@@H]7NC(=O)N[C@@H]76)cc5)CC4)nc3)CC2)cc1 [Compound 403, 5-(4-(4-methoxybenzoyl)piperidine-1-carbonyl)-N-(1-(4-(14-oxo-18-((3aS,4S,6aR)-2-oxohexahydro-1H-thieno[3,4-d]imidazol-4-yl)-4,7,10-trioxa-13-azaoctadecanamido)benzyl)piperidin-4-yl)picolinamide] |
| > 6.30 | N#Cc1ccc(CC2CCN(C(=O)c3ccc(C(=O)NC4CCN(Cc5ccc(C#N)cc5)CC4)nc3)CC2)cc1 [Compound 128, N-(1-(4-cyanobenzyl)piperidin-4-yl)-5-(4-(4-cyanobenzyl)piperidine-1-carbonyl)picolinamide] |
| 6.00 to 6.30 | COc1ccc(OC2CCN(C(=O)c3ccc(C(=O)NC4CCN(Cc5ccc(C#N)cc5)CC4)cn3)CC2)c(N)c1 [Compound 384, 6-(4-(2-amino-4-methoxyphenoxy)piperidine-1-carbonyl)-N-(1-(4-cyanobenzyl)piperidin-4-yl)nicotinamide] |
| 5.30 to 6.00 | O=C(NC1CCN(Cc2ccccc2)CC1)c1ccc(Nc2ccc(Oc3ccccc3)cc2)cn1 [Compound 113, N-(1-benzylpiperidin-4-yl)-5-(4-phenoxyphenylamino)picolinamide] |
| > 6.30 | COc1ccc(OC2CCN(C(=O)c3ccc(C(=O)NC4CCN(Cc5ccc(F)cc5)CC4)nc3)CC2)cc1 [Compound 183, N-(1-(4-fluorobenzyl)piperidin-4-yl)-5-(4-(4-methoxyphenoxy)piperidine-1-carbonyl)picolinamide] |
| < 5.00 | N#Cc1ccc(OC2CN(C(=O)c3ccc(C(=O)Nc4ccc(Oc5ccc(F)cc5)nc4)nc3)C2)cc1 [Compound 210, 5-(3-(4-cyanophenoxy)azetidine-1-carbonyl)-N-(6-(4-fluorophenoxy)pyridin-3-yl)picolinamide] |
| > 6.30 | O=C(c1ccc(-c2cccc(OCc3ccccc3)c2)nc1)N1CCN(Cc2ccc(F)cc2)CC1 [Compound 22, (6-(3-(benzyloxy)phenyl)pyridin-3-yl)(4-(4-fluorobenzyl)piperazin-1-yl)methanone] |
| < 5.00 | COc1ccc(OC2CCN(C(=O)c3ccc(C(=O)NC4CCN(Cc5ccc(C#N)cc5)CC4)cn3)CC2)c(N(C)C)c1 [Compound 385, N-(1-(4-cyanobenzyl)piperidin-4-yl)-6-(4-(2-(dimethylamino)-4-methoxyphenoxy)piperidine-1-carbonyl)nicotinamide] |
| > 6.30 | N#Cc1ccc(Cn2ccc(NC(=O)c3ccc(C(=O)N4CCN(Cc5ccc(F)cc5)CC4)cn3)n2)cc1 [Compound 9, N-(1-(4-cyanobenzyl)-1H-pyrazol-3-yl)-5-(4-(4-fluorobenzyl)piperazine-1-carbonyl)picolinamide] |
| 5.00 to 5.30 | CN1CCN(c2ccc(C(=O)C3CCN(C(=O)c4ccc(C(=O)NC5CCN(Cc6ccc(OC(F)(F)F)cc6)CC5)cn4)CC3)cc2)CC1 [Compound 244, 6-(4-(4-(4-methylpiperazin-1-yl)benzoyl)piperidine-1-carbonyl)-N-(1-(4-(trifluoromethoxy)benzyl)piperidin-4-yl)nicotinamide] |
| > 6.30 | N#Cc1ccc(OC2CCN(C(=O)c3ccc(C(=O)N[C@H]4CC[C@@H](Oc5ccc(F)cc5)CC4)cn3)CC2)cc1 [Compound 324, 6-(4-(4-cyanophenoxy)piperidine-1-carbonyl)-N-((cis)-4-(4-fluorophenoxy)cyclohexyl)nicotinamide] |
| 5.30 to 6.00 | COc1ccc(C(=O)C2CCN(C(=O)c3ccc(C(=O)NC4CCN(Cc5ccc(C(=O)N(C)C)cc5)CC4)cn3)CC2)cc1 [Compound 490, N-(1-(4-(dimethylcarbamoyl)benzyl)piperidin-4-yl)-6-(4-(4-methoxybenzoyl)piperidine-1-carbonyl)nicotinamide] |
| > 6.30 | O=C(NC1CCN(Cc2ccc(OC(F)(F)F)cc2)CC1)c1ccc(C(=O)N2CCC(Oc3ccc(S(F)(F)(F)(F)F)cc3)CC2)nc1 [Compound 494, 6-(4-(4-(pentafluorosulfanyl)phenoxy)piperidine-1-carbonyl)-N-(1-(4-(trifluoromethoxy)benzyl)piperidin-4-yl)nicotinamide] |
| > 6.30 | CS(=O)(=O)c1ccc(OC2CCN(C(=O)c3ccc(C(=O)Nc4ccc(Oc5ccc(C#N)cc5)nc4)cn3)CC2)cc1 [Compound 459, N-(6-(4-cyanophenoxy)pyridin-3-yl)-6-(4-(4-(methylsulfonyl)phenoxy)piperidine-1-carbonyl)nicotinamide] |

| pEC50 | Compound |
| --- | --- |
| > 6.30 | N#Cc1ccc(CN2CCC(NC(=O)c3ccc(NC4CCN(c5ccccc5)CC4)cn3)CC2)cc1 [Compound 126, N-(1-(4-cyanobenzyl)piperidin-4-yl)-5-(1-phenylpiperidin-4-ylamino)picolinamide] |
| > 6.30 | N#Cc1ccc(CNC(=O)c2ccc(NC(=O)c3ccc(C(=O)N4CCN(Cc5ccc(F)cc5)CC4)cn3)cc2)cc1 [Compound 47, N-(4-(4-cyanobenzylcarbamoyl)phenyl)-5-(4-(4-fluorobenzyl)piperazine-1-carbonyl)picolinamide] |
| > 6.30 | N#Cc1ccc(CN2CCC(NC(=O)c3ncc(C(=O)N4CCN(Cc5ccc(F)cc5)CC4)cc3CCCNC(=O)CCOCCOCCOCCOCCNC(=O)CCCC[C@@H]3SC[C@@H]4NC(=O)N[C@@H]43)CC2)cc1 [Compound 291, N-(1-(4-cyanobenzyl)piperidin-4-yl)-3-(5,21-dioxo-25-((3aS,4S,6aR)-2-oxohexahydro-1H-thieno[3,4-d]imidazol-4-yl)-8,11,14,17-tetraoxa-4,20-diazapentacosyl)-5-(4-(4-fluorobenzyl)piperazine-1-carbonyl)picolinamide] |
| > 6.30 | CS(=O)(=O)c1ccc(Oc2ccc(NC(=O)c3ccc(C(=O)N4CCC(C(=O)c5ccc(F)cc5F)CC4)nc3)cn2)cc1 [Compound 466, 6-(4-(2,4-difluorobenzoyl)piperidine-1-carbonyl)-N-(6-(4-(methylsulfonyl)phenoxy)pyridin-3-yl)nicotinamide] |
| > 6.30 | O=C(Nc1ccc(Oc2ccc(F)cc2)nc1)c1ccc(C(=O)N2CCC(C(=O)c3ccc(F)cc3)CC2)cn1 [Compound 272, 5-(4-(4-fluorobenzoyl)piperidine-1-carbonyl)-N-(6-(4-fluorophenoxy)pyridin-3-yl)picolinamide] |
| 5.30 to 6.00 | CC(=O)c1ccc(Oc2ccc(NC(=O)c3ccc(C(=O)N4CCC(S(=O)(=O)c5ccc(F)cc5)CC4)nc3)cn2)cc1 [Compound 473, N-(6-(4-acetylphenoxy)pyridin-3-yl)-6-(4-(4-fluorophenylsulfonyl)piperidine-1-carbonyl)nicotinamide] |
| > 6.30 | O=C(Nc1ccc(-c2ccc(C(F)(F)F)cc2)cc1)c1ccc(C(=O)N2CCN(Cc3ccc(F)cc3)CC2)cn1 [Compound 25, 5-(4-(4-fluorobenzyl)piperazine-1-carbonyl)-N-(4-(4-trifluoromethylphenyl)phenyl)picolinamide] |
| < 5.00 | N#Cc1ccc(OC2CCN(C(=O)c3ccc(C(=O)NC4CCN(Cc5cocn5)CC4)cn3)CC2)cc1 [Compound 355, 6-(4-(4-cyanophenoxy)piperidine-1-carbonyl)-N-(1-(oxazol-4-ylmethyl)piperidin-4-yl)nicotinamide] |
| 5.30 to 6.00 | N#Cc1ccc(CNC(=O)c2cccc(-c3ccc(C(=O)N4CCN(Cc5ccc(F)cc5)CC4)cn3)c2)cc1 [Compound 42, (6-(3-(4-cyanobenzylcarbamoyl)phenyl)pyridin-3yl)(4-(4-fluorobenzyl)piperazin-1-yl)methanone] |
| > 6.30 | COc1ccc(C(=O)C2CCN(C(=O)c3ccc(C(=O)Nc4ccc(Oc5ccc(C#N)cc5)nc4)cn3)CC2)cc1 [Compound 460, N-(6-(4-cyanophenoxy)pyridin-3-yl)-6-(4-(4-methoxybenzoyl)piperidine-1-carbonyl)nicotinamide] |
| > 6.30 | CS(=O)(=O)c1ccc(C(=O)C2CCN(C(=O)c3ccc(C(=O)NC4CCN(Cc5ccc(F)cc5)CC4)nc3)CC2)cc1 [Compound 225, N-(1-(4-fluorobenzyl)piperidin-4-yl)-5-(4-(4-(methylsulfonyl)benzoyl)piperidine-1-carbonyl)picolinamide] |
| > 6.30 | N#Cc1ccc(O[C@H]2CC[C@@H](NC(=O)c3ccc(C(=O)N4CCC(C(=O)c5ccc(N6CCCC6)cc5)CC4)nc3)CC2)cc1 [Compound 442, N-((cis)-4-(4-cyanophenoxy)cyclohexyl)-6-(4-(4-(pyrrolidin-1-yl)benzoyl)piperidine-1-carbonyl)nicotinamide] |
| > 6.30 | CN(C)C(=O)c1ccc(OC2CCN(C(=O)c3ccc(C(=O)NC4CCN(Cc5ccc(C#N)cc5)CC4)nc3)CC2)cc1 [Compound 357, N-(1-(4-cyanobenzyl)piperidin-4-yl)-5-(4-(4-(dimethylcarbamoyl)phenoxy)piperidine-1-carbonyl)picolinamide] |
| > 6.30 | N#Cc1ccc(CN2CCC(NC(=O)c3ccc(C(=O)N4CCC(Oc5ccc(SC(F)(F)F)cc5)CC4)cn3)CC2)cc1 [Compound 410, N-(1-(4-cyanobenzyl)piperidin-4-yl)-5-(4-(4-(trifluoromethylthio)phenoxy)piperidine-1-carbonyl)picolinamide] |
| > 6.30 | CS(=O)(=O)c1ccc(N2CCN(C(=O)c3ccc(C(=O)NC4CCN(Cc5ccc(C#N)cc5)CC4)nc3)CC2)cc1 [Compound 250, N-(1-(4-cyanobenzyl)piperidin-4-yl)-5-(4-(4-(methylsulfonyl)phenyl)piperazine-1-carbonyl)picolinamide] |
| > 6.30 | O=C(Nc1ccc(Oc2ccc(F)cc2)nc1)c1ccc(C(=O)N2CCN(Cc3ccc(F)cc3)CC2)nc1 [Compound 334, 6-(4-(4-fluorobenzyl)piperazine-1-carbonyl)-N-(6-(4-fluorophenoxy)pyridin-3-yl)nicotinamide] |
